Measurements reported in patent publication US5959123A, “3,4-Disubstituted azetidin-2-one derivatives useful as cysteine proteinase regulators” (Synphar Laboratories, Inc., priority 1997, dated 1999).

Legend:
[1] = molecular target: cathepsin B (Rattus norvegicus, UniProt P00787); experiment: In vitro assay for cathepsin B inhibition; type: biochemical; settings: r rat cathepsin B; pH 5.1; 10 min incubation at room temperature; substrate N-CBZ-Phe-Arg-AMC (5 mM, 20 μl)
Description: The compounds of formula I were tested for inhibition of cathepsin B using the known method (A. J. Barret et al., Biochem. J. 1982, 201, 189-198). To a 170 μl of enzyme-buffer mixture (enzyme: r rat cathepsin B, diluted to give approximate 10 F units/min, buffer: 56 mM sodium acetate, 1.124 mM EDTA, 10 mM DTT, pH 5.1) a 10 μL of inhibitor (dissolved in DMSO) was added. After 10 min of incubation at room temperature, a 20 μl of 5 mM substrate (N-CBZ-Phe-Arg-AMC, dissolved in DMSO) was added to initiate reaction. Reading is followed up for 10 min at the fluoroscan reader (excitation at 380 nm emission at 460 nm).
(§1) A plot of percentage of inhibition vs inhibitor concentration is obtained, and IC50 is determined using a linear regression calculation (concentration of inhibitor which will give 50% inhibition).

[2] = molecular target: cathepsin L (Rattus norvegicus, UniProt P07154); experiment: In vitro assay for cathepsin L inhibition; type: biochemical; settings: r rat cathepsin L; pH 5.0; 10 min incubation at room temperature; substrate N-CBZ-Phe-Arg-AMC (1 mM, 20 μl)
Sequence of cathepsin L (P07154 114-334): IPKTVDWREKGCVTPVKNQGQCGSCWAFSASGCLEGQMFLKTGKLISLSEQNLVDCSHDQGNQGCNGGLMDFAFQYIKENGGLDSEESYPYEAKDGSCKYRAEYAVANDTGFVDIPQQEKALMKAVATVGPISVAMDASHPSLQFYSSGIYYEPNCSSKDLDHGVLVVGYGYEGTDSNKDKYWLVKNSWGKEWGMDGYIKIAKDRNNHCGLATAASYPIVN
Description: To a 170 μl of enzyme-buffer mixture (enzyme: r rat cathepsin L, diluted to give approximate 15 F units/min, buffer: 58.8 mM sodium citrate, 1.18 mM EDTA, 235 mM sodium chloride, 5 mM DTT, pH 5.0) a 10 μL of inhibitor (dissolved in DMSO) was added. After 10 min of incubation at room temperature, a 20 μl of 1 mM substrate (N-CBZ-Phe-Arg-AMC, dissolved in DMSO) was added to initiate reaction. Reading is followed up for 10 min at the fluoroscan reader (excitation at 380 nm emission at 460 nm).
as §1

Sequence of cathepsin B (P00787 80-333 limits assumed): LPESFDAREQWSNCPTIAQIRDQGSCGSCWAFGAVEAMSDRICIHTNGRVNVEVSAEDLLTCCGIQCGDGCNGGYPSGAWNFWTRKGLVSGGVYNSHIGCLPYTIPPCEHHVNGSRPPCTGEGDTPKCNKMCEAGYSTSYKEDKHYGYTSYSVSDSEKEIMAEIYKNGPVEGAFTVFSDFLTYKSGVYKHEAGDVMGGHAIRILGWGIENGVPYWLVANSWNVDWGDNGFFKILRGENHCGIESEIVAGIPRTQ

Row | IC50 [1] | IC50 [2] | Structure (SMILES)
1 | > 50 µM | 10.7 µM | CC(OC(C)(C)C)[C@H](NC(=O)OCc1ccccc1)C(=O)N[C@@H]1C(=O)N[C@@H]1Oc1ccccc1 (stereo partly drawn) [Example 26, (3S, 4R)-3-[2S-2-benzyloxycarbonylamino-2-(1-t-butyloxyethyl)-acetamido]-4-phenoxy-azetidin-2-one]
2 | 23 µM | 2.3 µM | CC(C)(C)C[C@H](NC(=O)OCc1ccccc1)C(=O)N[C@@H]1C(=O)N[C@H]1Oc1ccccc1 [Example 27, (3S, 4S)-3-(2S-2-benzyloxycarbonylamino-2-t-butylmethyl-acetamido)-4-phenoxy-azetidin-2-one]
3 | 45 µM | 11.4 µM | CC(C)(C)C[C@H](NC(=O)CCc1ccccc1)C(=O)N[C@@H]1C(=O)N[C@H]1Oc1ccccc1 [Example 28, (3S, 4S)-3-[2S-2-(3-phenylpropionoyl)amino-2-t-butylmethyl-acetamido]-4-phenoxy-azetidin-2-one]
4 | > 50 µM | > 50 µM | CC(C)(C)[C@H](NC(=O)CCc1ccccc1)C(=O)N[C@@H]1C(=O)N[C@H]1Oc1ccccc1 [Example 29, (3S, 4S)-3-[2S-2-(3-phenylpropionoyl)amino-2-t-butyl-acetamido]-4-phenoxy-azetidin-2-one]
5 | 48 µM | 1.6 µM | COc1ccc(C[C@H](NC(=O)CCc2ccccc2)C(=O)N[C@@H]2C(=O)N[C@H]2Oc2ccccc2)cc1OC [Example 30, (3S, 4s)-3-[2S-2-(3-phenylpropionoyl)amino-2-(3,4-dimethoxyphenyl)methyl-acetamido]-4-phenoxy-azetidin-2-one]
6 | 9.7 µM | 0.08 µM | O=C(CCc1ccccc1)N[C@@H](Cc1ccc2c(c1)OCCO2)C(=O)N[C@@H]1C(=O)N[C@H]1Oc1ccccc1 [Example 31]
